The text below walks through data of patent US12459894B2, “Orally active melanocortin receptor-4 compounds” (Palatin Technologies, Inc., priority 2018, dated 2025).

For experiment [1], the target named is T1, MC4r (Homo sapiens, UniProt P32245). In words: Functional cAMP study in human MC4r expression system approximating maximal physiologic receptor densities. On the set-up: host or cells: TREx-293 transfected with pcDNA4/TO/MC4R. In kind it is cell-based. How it is done:
Assay for Agonist Activity. Accumulation of intracellular cAMP was examined as a measure of the ability of the peptides of the present invention to elicit a functional response in HEK-293 cells that express MC4-R. Confluent HEK-293 cells that express recombinant hMC4-R were detached from culture plates by incubation in enzyme-free cell dissociation buffer. Dispersed cells were suspended in Hanks' Balanced Salt Solution containing 10 mM HEPES (pH 7.5), 1 mM MgCl2, 1 mM glutamine, 0.5% albumin and 0.3 mM 3-isobutyl-1-methyl-xanthine (IBMX), a phosphodiesterase inhibitor. The cells were plated in 96-well plates at a density of 0.5×10^5 cells per well and pre-incubated for 10 minutes. Cells were exposed for 15 minutes at 37° C. to peptides of the present invention dissolved in DMSO (final DMSO concentration of 1%) at a concentration range of 0.05-5000 nM in a total assay volume of 200 μL. NDP-α-MSH was used as the reference agonist. cAMP levels were determined by an HTRF® cAMP cell-based assay system from Cisbio Bioassays utilizing cryptate-labeled anti-cAMP and d2-labeled cAMP, with plates read on a Perkin-Elmer Victor plate reader at […]. Data analysis was performed by nonlinear regression analysis with Graph-Pad Prism® software. The maximum efficacies of the test peptides of the present invention were compared to that achieved by the reference melanocortin agonist NDP-αMSH. […]

In experiment [2] the target is T1, MC4r. Kind of experiment: Competitive inhibition binding assay, MC4r. Set-up: expressed in transfected cells; host or cells: HEK-293 (membrane homogenates). The conditions noted are these: binding studies. On the procedure:
A competitive inhibition binding assay is performed using membrane homogenates prepared from HEK-293 cells that express recombinant hMC1ra, hMC4r, hMC3r, or hMC5r, and from B16-F10 mouse melanoma cells (containing endogenous MC1r). In the examples that follow, all values are for human recombinant receptors unless otherwise noted. Assays are performed in 96 well GF/B Millipore multiscreen filtration plates (MAFB NOB10) pre-coated with 0.5% bovine serum albumin (Fraction V). […] After incubation for 60 to 90 minutes at 37° C., the assay mixture is filtered and the membranes washed three times with ice-cold buffer. Filters are dried and counted in a gamma counter for bound radioactivity.
Maximal specific binding (100%) is defined as the difference in radioactivity (cpm) bound to cell membranes in the absence and presence of 1 μM NDP-α-MSH. […] Each assay is conducted in duplicate or triplicate and the actual mean values are described, with results less than 0% reported as 0%. Ki values for test compounds are determined using Graph-Pad Prism® curve-fitting software.
Competitive Binding Assay Using Eu-NDP-α-MSH. […] The plates were incubated on a shaker for 15 minutes and read at 340 nm excitation and 615 nm emission wavelengths. […] Ki values were determined by curve-fitting with Graph-Pad Prism® software using a one-site fixed-slope competition binding model.

A further experiment concerns C57BL/6 male DIO mice. In words: Body weight and food intake in vivo study in diet induced obese (DIO) mice. On the set-up: species or system mouse. The conditions noted are these: for Body Weight Change (%) Mean / Food Intake - 24 Hours (g) Mean: 1 mg/kg subcutaneous twice daily. How it is done:
Compound 7.1 was assessed in a body weight and food intake in vivo study in diet induced obese (DIO) mice. C57BL/6 male DIO mice were utilized, that were 17 weeks of age on arrival. Animals were pre-conditioned on a high-fat diet for 11 weeks by Jackson Labs. […] Animals were single housed within a limited access rodent facility, and provided ad libitum with a commercial rodent diet and free access to drinking water. Animals were randomized into five groups, a vehicle group, three dose levels of compound 7.1 (3 mg/kg, 10 mg/kg and 30 mg/kg), and Peptide A, a positive control cyclic peptide of the formula Ac-Arg-cyclo(Om-Asn-D-Phe-Arg-Trp-Glu)-NH2. Following three days of sham dosing, animals were dosed for three days, with vehicle or Compound 7.1 dosed orally once daily at within one hour of lights out in the AM, and Peptide A dosed by subcutaneous injection twice daily within one hour before lights out and six hours after lights out. Body weights were measured one hour prior to lights out, and feed weights were measured both one hour prior to lights out and six hours post lights out.
• *p<0.05 vs. sham (vehicle control) using two-way ANOVA followed by Dunnett's post-test. • **p<0.01 vs sham (vehicle control) using two-way ANOVA followed by Dunnett's post-test.

Marks after values point to notes of the source that are not given here.

T1 sequence (P32245 whole entry): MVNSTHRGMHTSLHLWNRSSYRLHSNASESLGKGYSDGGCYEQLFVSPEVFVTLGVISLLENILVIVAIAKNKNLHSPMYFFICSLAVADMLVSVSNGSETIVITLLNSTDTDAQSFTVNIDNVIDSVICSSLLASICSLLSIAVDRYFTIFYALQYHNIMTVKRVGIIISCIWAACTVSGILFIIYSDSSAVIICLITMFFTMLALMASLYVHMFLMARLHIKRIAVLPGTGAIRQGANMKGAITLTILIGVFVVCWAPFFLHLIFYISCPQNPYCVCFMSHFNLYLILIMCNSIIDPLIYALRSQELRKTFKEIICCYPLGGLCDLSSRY

With `CNC(C)(C)C(=O)N[C@H](Cc1ccc(Cl)cc1)C(=O)N1CCN(N(CC(C)C)C2CCN(C(C)=O)CC2)CC1` [Compound 7.9, N-[(1R)-2-[4-[(1-acetyl-4-piperidyl)-isobutyl-amino]piperazin-1-yl]-1-[(4-chlorophenyl)methyl]-2-oxo-ethyl]-2-methyl-2-(methylamino)propanamide], a half-maximal response on MC4r [1] (EC50) required 5 nM. Moreover, the Emax at MC4r [1] (read-out: relative efficacy, compared to NDP-α-MSH) came out at 19%. Further, the Ki (as a rule, a measure of affinity in units of concentration, obtained from inhibition or displacement) at MC4r [2] was 5 nM.
For “Ac-Arg-cyclo(Om-Asn-D-Phe-Arg-Trp-Glu)-NH2 [Peptide A, reference compound]”, the “Body Weight Change (%) Mean” value in the experiment on C57BL/6 male DIO mice (Day 0) is recorded as 0%; in the experiment on C57BL/6 male DIO mice (Day 1), −5.69** %; in the experiment on C57BL/6 male DIO mice (Day 2) it was −8.37** %; in the experiment with C57BL/6 male DIO mice (Day 3) it was −8.78** %. Besides, the “Food Intake - 24 Hours (g) Mean” value is 0.99** g with C57BL/6 male DIO mice (Day 0, 24 hours post lights out); 1.10** g with C57BL/6 male DIO mice (Day 1, 24 hours post lights out); 1.67** g in the experiment with C57BL/6 male DIO mice (Day 2, 24 hours post lights out). Further, the “feed intake” value in the experiment with C57BL/6 male DIO mice (1 mg/kg, 24 hours post lights out, entirety of the study, vs sham) is reported as “significantly inhibited feed intake”. The “body weight” value with C57BL/6 male DIO mice (two times daily 1 mg/kg, throughout the study) was “decreased animal body weights”.
